Test results: ChEMBL document CHEMBL1201862, “PubChem BioAssay data set” (2004)
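Dose response: 5 concentrations. Exposure: 48 h. Format: 96-well plates. Endpoint: linear interpolation; highest concentration if not reached. Here, GI50 denotes the concentration required for 50% inhibition of growth.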 Calls of active or inactive are those of the source. No stated cut-off is given here; in the data, active = GI50 up to about 1.1 µM and inactive = higher.

Experiments:
Test in all cases: inhibition of tumour cell growth, NCI panel, 48 h
[1] = tested on: RXF 393
[2] = tested on: SW-620
[3] = tested on: HOP-92
[4] = tested on: HCT-116
[5] = tested on: EKVX
[6] = tested on: SK-MEL-5
[7] = tested on: 786-0
[8] = tested on: RPMI-8226
[9] = tested on: Malme-3M
[10] = tested on: SF-295
[11] = tested on: UACC-257
[12] = tested on: HCC 2998
[13] = tested on: TK-10
[14] = tested on: ACHN
[15] = tested on: DLD-1
[16] = tested on: MDA-N
[17] = tested on: BT-549
[18] = tested on: PC-3
[19] = tested on: DU-145
[20] = tested on: NCI/ADR-RES

SMILES	GI50 [1]	GI50 [2]	GI50 [3]	GI50 [4]	GI50 [5]	GI50 [6]	GI50 [7]	GI50 [8]	GI50 [9]	GI50 [10]	GI50 [11]	GI50 [12]	GI50 [13]	GI50 [14]	GI50 [15]	GI50 [16]	GI50 [17]	GI50 [18]	GI50 [19]	GI50 [20]
Cc1ccc(S(=O)(=O)N/N=C/c2oc(-c3ccccc3Cl)c(-c3ccccc3Cl)c2[N+](=O)[O-])cc1	13.8 µM (inactive)	21 µM (inactive)	28.5 µM (inactive)	6.37 µM (inactive)	31.5 µM (inactive)	19.5 µM (inactive)	19.5 µM (inactive)	3.73 µM (inactive)	24 µM (inactive)	> 100 µM (inactive)	37.2 µM (inactive)	21 µM (inactive)	59 µM (inactive)	13.9 µM (inactive)	17.1 µM (inactive)					
Nc1c(S(=O)(=O)c2ccccc2)c2nc3ccccc3nc2n2c1nc1ccccc12	> 100 µM (inactive)	> 68.2 µM (inactive)	> 100 µM (inactive)	56.2 µM (inactive)	> 68.5 µM (inactive)	32.4 µM (inactive)	8.09 µM (inactive)	> 100 µM (inactive)	19.5 µM (inactive)	> 34.7 µM (inactive)	> 51.5 µM (inactive)	> 78.5 µM (inactive)	> 100 µM (inactive)	> 64.4 µM (inactive)	> 86.1 µM (inactive)					
CC1CC(C)CC(C)C(O)/C(C#N)=C/C=C/CC(C2CCCC2C(=O)O)OC(=O)CC(O)C(C)C1 (stereo not drawn)	< 0.01 µM (active)	0.0335 µM (active)	< 0.01 µM (active)	0.0223 µM (active)	0.064 µM (active)		< 0.0126 µM (active)	< 0.0305 µM (active)	0.0286 µM (active)	0.0303 µM (active)	0.0154 µM (active)	0.0151 µM (active)	0.0301 µM (active)	< 0.0194 µM (active)	< 0.0122 µM (active)	< 0.0112 µM (active)	0.0143 µM (active)	0.0251 µM (active)	0.111 µM (active)	
O=CC1=CCC2c3[nH]c4ccccc4c3CCN2C1 (stereo not drawn)	182 µM (inactive)	122 µM (inactive)	111 µM (inactive)	61.7 µM (inactive)	> 396 µM (inactive)	114 µM (inactive)	141 µM (inactive)	112 µM (inactive)	296 µM (inactive)	106 µM (inactive)	98.9 µM (inactive)	103 µM (inactive)	259 µM (inactive)	219 µM (inactive)	85.5 µM (inactive)					
COc1cc2cc3c4c(cc(OC)c(OC)c4c2cc1OC)CCN3	25.1 µM (inactive)	21.1 µM (inactive)	20.8 µM (inactive)	36.6 µM (inactive)	6.53 µM (inactive)	23.8 µM (inactive)	48.4 µM (inactive)	20 µM (inactive)	44.5 µM (inactive)	37 µM (inactive)	58.6 µM (inactive)	72.8 µM (inactive)	74.5 µM (inactive)	32.5 µM (inactive)	26.1 µM (inactive)					
COC(=O)C1CC(=O)O[C@H]1c1ccc(OC)c(OC)c1 (stereo partly drawn)	> 100 µM (inactive)	> 100 µM (inactive)	> 100 µM (inactive)	> 100 µM (inactive)	> 100 µM (inactive)	> 100 µM (inactive)	> 100 µM (inactive)	> 100 µM (inactive)	> 100 µM (inactive)	> 100 µM (inactive)	> 100 µM (inactive)	> 100 µM (inactive)	> 100 µM (inactive)	> 100 µM (inactive)	> 100 µM (inactive)					
C[C@@H](CN1CC(=O)NC(=O)C1)N1CC(=O)NC(=O)C1 [DEXRAZOXANE]	272 µM (inactive)	57.5 µM (inactive)	196 µM (inactive)	118 µM (inactive)	173 µM (inactive)	174 µM (inactive)	266 µM (inactive)	327 µM (inactive)	165 µM (inactive)	259 µM (inactive)	492 µM (inactive)	473 µM (inactive)	222 µM (inactive)	139 µM (inactive)	424 µM (inactive)	241 µM (inactive)	230 µM (inactive)	180 µM (inactive)	255 µM (inactive)	282 µM (inactive)
